Laboratory results: PMC6278568, “Discovery of 3-Amino-2-Hydroxypropoxyisoflavone Derivatives as Potential Anti-HCV Agents” (Molecules, 2018)
Entries after “also recorded” stand apart in the source; their conditions may differ. Read-outs that look alike come from different tables or passages of the source.

Columns and labels:
HCV replication = experiment: Anti-HCV activity in Ava-5 HCV subgenomic replicon cells (firefly luciferase assay); type: cell-based, Hepatitis C virus; details: Ava-5 cells; for EC50: treated for three days, firefly luciferase assay, read-out: EC50 (concentration resulting in a 50% inhibition in virus production / HCV replication); for anti-HCV activity compared with ribavirin (in words): three days
Description: Ava-5 cells were treated with compounds 6a–i or the positive ribavirin for three days, and then analyzed through firefly luciferase assay. The concentration that inhibited 50% HCV replication (EC50), the concentration that inhibited 50% cell growth (CC50), and the selectivity index (SI: CC50/EC50) of compounds were determined with ribavirin as a positive control.
(§1) Compounds were dissolved in DMSO at 10 mM and then diluted in culture medium.
(§2) Ava5 cells, an engineered HCV subgenomic replicon cell line, were cultured in Dulbecco′s modified Eagle′s medium (DMEM) with 10% heat-inactivated fetal bovine serum, 1% antibiotic–antimycotic, and 1% non-essential amino acids. Ava5 cells were maintained in DMEM with 1 mg mL^−1 G418 to maintain the stable expression of replicon.

ava-5 cells = experiment: Cytotoxicity in Ava-5 cells (XTT method); type: cell-based; details: Ava-5 cells, 72 h, XTT method; read-out: CC50 (concentration causing a 50% growth inhibition of uninfected ava-5 cells)
Description: as §1, §2
(§3) For cytotoxicity tests, run in parallel with antiviral assays, plates at an initial density of (5 × 10^3 cells/well) were treated with or without serial dilutions of test compounds. Cell viability was determined after 72 h at 37 °C in a humidified CO2 (5%) atmosphere by the (2,3-bis[2-methyloxy-4-nitro-5-sulfophenyl]-2H-tetrazolium-5-carboxanilide) (XTT) method.

HCV genotype 1b = details: cited from earlier work
HCV genotype 2a = details: cited from earlier work
HCV = details: cited from earlier work
[1] = Cytotoxicity in Ava-5 cells (XTT method); type: cell-based; details: human, Ava5 cells (HCV subgenomic replicon cell line); Ava-5 cells, 72 h, XTT method; read-out: CC50 (concentration causing a 50% growth inhibition of uninfected ava-5 cells)
Description: as §1, §2, §3

[2] = tested on: Nrf2 / ARE transactivation; experiment: ARE transactivation, p3xARE-Luc reporter in Ava-5 cells (luciferase assay); type: cell-based; details: p3xARE-Luc-transfected Ava-5 cells, 1 and 10 μM, 3 days
Text: Heme oxygenase 1 expression is regulated by the transcription factors Nrf2, Keap1, and Bach1 through the binding of ARE in its promoter region; therefore, we determined whether isoflavones-mediated HO-1 induction was dependent on ARE transactivation by treating p3xARE-Luc-transfected ava-5 cells with increasing concentrations of […] for 3 days.
Ava5 cells were transfected with the HO-1 promoter-driven luciferase plasmid, pHO-1-Luc, using the T-pro^TM transfection reagent (Ji-Feng Biotechnology Co., Ltd., Taipei, Taiwan) according to the manufacturer′s instructions. The transfected cells were treated with compounds at various concentrations for 3 days. Each transfection complex contains 0.1 μg pSEAP, a secreted alkaline phosphatase (SEAP) expression vector, for normalization luciferase activity serving as a transfection control. The luciferase activity assay was performed using the Bright-Glo Luciferase assay system (Promega) (Madison, WI, USA) according to the manufacturer′s instructions.
Figure 6 Isoflavones inhibited HCV replication by upregulating Nrf2 expression. Compound 6b, 6e, 6h and 6i stimulated ARE transactivation in Ava-5 cells. The antioxidant response reporter plasmid, p3xARE-Luc, was transfected into Ava-5 cells and then treated with isoflavones (1 and 10 μM) for 3 days. The relative induction of antioxidant activity was determined by luciferase assay. The activity of untreated Ava-5 cells was considered to be 1.

HO-1 protein expression = HO-1 protein expression in Ava-5 cells by western blotting; type: cell-based; details: 10 μM, 3 days, compared with DMSO-treated cells
Description: To determine whether compounds 6b, 6e, 6h and 6i have impact on HO-1 protein expression in Ava-5 cells, we treated these compounds at 10 μM in Ava5 cells.
Ava5 cells were seeded in 24-well plates at a density of 5 × 10^4 cells per well overnight and treated with indicated reagent at proper concentrations for 3 days. Cells were washed with cold phosphate buffer saline (PBS) and lysed by radioimmunoprecipitation assay (RIPA) lysis buffer (50 mM Tris-HCl, pH 7.5, 150 mM NaCl, 1% Nonidet P-40, 2 mM EDTA, 1 mM EGTA, 1 mM NaVO3, 10 mM NaF, 1 mM DTT, 1 mM PMSF, 25 μg/mL aprotinin, and 25 μg/mL leupeptin) and stored at −20 °C. The protein concentration was determined by the Bradford method. Ten μg protein were separated by 10% SDS-PAGE and transferred onto a polyvinylidene difluorid (PVDF) membrane. The membrane was blocked with 5% non-fat dried milk and incubated with specific antibodies against NS5B (1:5000; Abcam Cambridge, MA, USA), glyceraldehyde-3-phosphate dehydrogenase (GAPDH) and anti-HO-1 (1:3000, Abcam Cambridge, MA, USA). Antibodies were diluted in 5% milk containing Tris-buffered saline (TBS) and 0.5% Tween. The blotting signal was developed using an ECL detection kit (PerkinElmer, Norwalk, CT, USA) and was counted by the software Quantity One (Bio-Rad, Foster, CA, USA).
Compound 6b, 6e, 6h and 6i induced HO-1 protein expression. Ava-5 cells were treated with compounds at 10 μM for 3 days. The cell lysate was subjected to western blotting with anti-HO-1 and anti-GAPDH antibodies.

| Molecule | melting point | SI (selectivity index, CC50/EC50) (HCV replication) | EC50 (HCV replication; Hepatitis C virus, Ava5, 72 h) | CC50 at 72 h [1] | also measured |
| --- | --- | --- | --- | --- | --- |
| 3-{{3-{[3-(3,4-Dimethoxyphenyl)-4-oxo-4H-chromen-7-yl]oxy}-2-hydroxypropyl}amino}-2-(1H-indol-3-yl)propanoic acid [Compound 6d] |  |  |  |  | EC50 (HCV replication): > 20 µM; CC50 (ava-5 cells): 98.8 ± 3.67 µM |
| c1ccc(Cn2c(-c3ccccc3)cc3c2CCCC3)cc1 [Compound 1, 1-benzyl-2-phenyl-4,5,6,7-tetrahydro-1H-indole] |  |  |  |  | EC50 (HCV genotype 1b): 7.9 µM; EC50 (HCV genotype 2a): 2.6 µM |
| CCOC(=O)C1C[C@@H]2/C(=N/Nc3ccccc3)CCCC[C@@H]2N1S(=O)(=O)c1ccc(C)cc1 (stereo partly drawn) [Compound 2, (3aS,8aS,E)-ethyl-4-(2-phenylhydrazono)-1-tosyldecahydro-cyclohepta[b]pyrrole-2-carboxylate] |  |  |  |  | EC50 (HCV genotype 1b): 1.8 µM; EC50 (HCV genotype 2a): 4.5 µM |
| O=c1c(O)c(-c2ccc(O)c(O)c2)oc2cc(OCc3cccc(Cl)c3)cc(O)c12 [Compound 3, 7-[(3-chlorobenzyl)oxy]-2-(3,4-dihydroxyphenyl)-3,5-dihydroxy-4H-chromen-4-one] |  |  |  |  | EC50 (HCV; anti-HCV evaluation of quercetin analogues): 3.8 µM |
| COc1ccc(Nc2cc3oc(-c4ccco4)nc3c3ccccc23)cc1 [Compound 4, 2-(furan-2-yl)-N-(4-methoxyphenyl)naphtho[1,2-d]oxazol-5-amine] |  |  |  |  | EC50 (HCV; anti-HCV evaluation of naphtho[1,2-d]oxazole derivatives): 0.63 µM |
| COc1ccc(-c2coc3cc(OCC(O)CNCCc4ccc(O)cc4)ccc3c2=O)cc1OC (stereo not shown) [Compound 6a, 3-(3,4-Dimethoxyphenyl)-7-{2-hydroxy-3-[(4-hydroxyphenethyl)amino]propoxy}-4H-chromen-4-one] | 117 to 118 °C | <3.58 | > 20 µM | 71.7 ± 4.44 µM |  |
| COc1ccc(-c2coc3cc(OCC(O)CNCCc4c[nH]c5ccccc45)ccc3c2=O)cc1OC (stereo not shown) [Compound 6c, 7-{3-{[2-(1H-Indol-3-yl)ethyl]amino}-2-hydroxypropoxy}-3-(3,4-dimethoxyphenyl)-4H-chromen-4-one] | 178 to 179 °C | 2.26 | 16.3 ± 0.95 µM | 36.9 ± 0.46 µM |  |
| CCC(C)(C)NCC(O)COc1ccc2c(=O)c(-c3ccc(OC)c(OC)c3)coc2c1 (stereo not shown) [Compound 6e, 3-(3,4-Dimethoxyphenyl)-7-(2-hydroxy-3-(tert-pentylamino)propoxy)-4H-chromen-4-one] |  | 10.80 | 8.14 ± 1.74 µM | 87.9 ± 2.13 µM | ARE-mediated luciferase activity [2]: increased ARE-mediated luciferase activity; anti-HCV activity compared with ribavirin (in words) (HCV replication): more active than ribavirin; also recorded: higher anti-HCV effects than ribavirin; HO-1 protein level (HO-1 protein expression): could induce HO-1 protein level |
| COc1ccc(-c2coc3cc(OCC(O)CNC(C)(C)c4ccccc4)ccc3c2=O)cc1OC (stereo not shown) [Compound 6f, 3-(3,4-Dimethoxyphenyl)-7-{2-hydroxy-3-[(2-phenylpropan-2-yl)amino]propoxy}-4H-chromen-4-one] | 131 to 132 °C | 3.30 | 14.3 ± 0.84 µM | 47.2 ± 2.74 µM |  |
| COc1ccc(-c2coc3cc(OCC(O)CNC(C)(C)N4CCOCC4)ccc3c2=O)cc1OC (stereo not shown) [Compound 6g, 3-(3,4-Dimethoxyphenyl)-7-{2-hydroxy-3-[(2-morpholinopropan-2-yl)amino]propoxy}-4H-chromen-4-one] |  | <7.17 | > 20 µM | 144 ± 3.82 µM |  |
| COc1ccc(-c2coc3cc(OCC(O)CNC(C)(C)Cc4ccc(F)cc4)ccc3c2=O)cc1OC (stereo not shown) [Compound 6h, 3-(3,4-Dimethoxyphenyl)-7-{3-{[1-(4-fluorophenyl)-2-methylpropan-2-yl]amino}-2-hydroxypropoxy}-4H-chromen-4-one] | 151 to 152 °C | 11.87 | 9.35 ± 0.97 µM | 111 ± 4.39 µM | ARE-mediated luciferase activity [2]: increased ARE-mediated luciferase activity; anti-HCV activity compared with ribavirin (in words) (HCV replication): more active than ribavirin; also recorded: higher anti-HCV effects than ribavirin; HO-1 protein level (HO-1 protein expression): could induce HO-1 protein level |
| COc1ccc(-c2coc3cc(OCC(O)CNCC4(N5CCOCC5)CCCCC4)ccc3c2=O)cc1OC (stereo not shown) [Compound 6i, 3-(3,4-Dimethoxyphenyl)-7-{2-hydroxy-3-{[(1-morpholinocyclohexyl)methyl]amino}propoxy}-4H-chromen-4-one] | 67 to 68 °C | 14.55 | 10.7 ± 0.87 µM | 156 ± 1.58 µM | ARE-mediated luciferase activity [2]: increased ARE-mediated luciferase activity; anti-HCV activity compared with ribavirin (in words) (HCV replication): more active than ribavirin; also recorded: higher anti-HCV effects than ribavirin; HO-1 protein level (HO-1 protein expression): could induce HO-1 protein level |
| NC(=O)c1ncn([C@@H]2O[C@H](CO)[C@@H](O)[C@H]2O)n1 [ribavirin, reference compound] |  | 8.08 | 13.2 ± 1.63 µM | 106 ± 3.69 µM |  |
